Measurements taken from patent US8715735B2, “Stabilised supersaturated solids of lipophilic drugs” (Bayer Intellectual Property GmbH, priority 2004, dated 2014).

Tests used:
[1] = In-vitro dissolution test, USP XXVIII paddle apparatus 2, 0.4% aqueous sodium dodecyl sulfate; format: physicochemical; conditions: approx. 1 mg estradiol valerate tested, 1000 mL 0.4% SDS, 37° C., 75 rpm
Procedure: Formulations according to the examples 1 to 4 were investigated in an in-vitro dissolution test according to USP XXVIII Paddle apparatus 2 using 1000 mL of an 0.4% aqueous solution of sodium dodecyl sulfate as dissolution medium to ensure sink condition (37° C., 75 rpm). The amount of formulations to be tested was selected so that the composition contains approx. 1 mg of estradiol valerate. As reference, 1 mg unformulated estradiol valerate was investigated.

[2] = Saturation concentration of estradiol valerate in solvent at room temperature; format: physicochemical
Procedure: The resulting liquid is mixed with 1000 g Aeroperl® 300 to give a powder with homogeneously absorbed liquid. 24 mg of the described stabilised supersaturated formulation contains 1 mg estradiol valerate. […] The resulting liquid is mixed with 1667 g Aeroperl® 300 to give a powder with homogeneously absorbed liquid. 67 mg of the described stabilised supersaturated formulation contains 1 mg estradiol valerate. […] The resulting liquid is mixed with 1000 g Aeroperl® 300 to give a powder with homogeneously absorbed liquid. 44 mg of the described stabilised supersaturated formulation contains 1 mg estradiol valerate.

CCCCC(=O)O[C@H]1CC[C@H]2[C@@H]3CCc4cc(O)ccc4[C@H]3CC[C@]12C [estradiol valerate]
Release estradiol valerate, 3 min ([1]; 3 min): 0.34 mg | Release estradiol valerate, 6 min ([1]; 6 min): 0.41 mg | Release estradiol valerate, 10 min ([1]; 10 min): 0.47 mg | Release estradiol valerate, 15 min ([1]; 15 min): 0.67 mg | Release estradiol valerate, 30 min ([1]; 30 min): 0.76 mg | saturation concentration ([2]; in medium chain triglycerides (MCT) at room temperature): approx. 27 g/L | saturation concentration ([2]; in peanut oil at room temperature): approx. 30 g/L | saturation concentration ([2]; in polyethylene glycol (PEG) 400 at room temperature): approx. 50 g/L
